Assay results: US20080058284A1, “Pharmaceutical compositions of semicarbazones and/or thiosemicarbazones and/or their derivatives and products of these compositions and their uses as anticonvulsant, anti-nociceptive and anti-inflammatory agents, and in the angiogenic therapy” (UNIVERSIDALE FEDERAL DE MINAS GERAIS, priority 2002, published 2008)

Assays:
[1] = test system: angiogenesis induced by sponge implant in Swiss mice; assay: Angiogenesis induced by sponge implant, hemoglobin content (vascular index); type: in vivo; settings: for reduction in the hemoglobin content of implants: vs vehicle-treated group
Experimental: The experiments were performed in male, Swiss mice (20-30 g; 12 weeks old) from the Animal House of the Institute of Biological Sciences, Federal University of Minas Gerais. Polyether-polyurethane sponge discs 5 mm thickness and 10 mm diameter with central cannula, used as a framework to induce fibrovascular tissue growth, were introduced through a skin incision in the back of mice anesthetized with 2,2,2-tribromoethanol ([…]) [Machado, R. D. P., Santos, R. A. S., Andrade, S. P., Life Sciences 66, 67, 2000]. The animals were housed individually and provided with normal food and water. Housing and anesthesia concurred with the guidelines established by our local Institutional Animal Welfare Committee.
Four more doses were given in the subsequent days. The animals were killed by cervical dislocation 9 days after implantation. The implants were removed and processed for hemoglobin determination (vascular index) using a modified Drabkin's method [Plunkett, M. L., Haley, J. A., Lab. Invest. […] One group of animals received injection of vehicle.

[2] = test system: carrageenan-induced edema in rats; assay: Carrageenan-induced edema; type: in vivo, rat; settings: 10, 25 or 50 mg/kg i.p., -1 h
Experimental: To evaluate if a coupound presents antiedematogenic activity, the model of carrageenan-induced edema in rats was used. In this model, before the administration of any drug, the right hindpaw volume is determined with a plethysmomether. After the division of the groups, carrageenan (1%, 50 μL) is injected into the plantar surface. At different times after the injection of carrageenan, the paw volume is determined again. This inflammatory stimulus induces a marked edema that is inhibited by different anti-inflammatory drugs (steroid and non-steroid), inhibitors of nitric oxide synthesis and antagonists of histamine, 5-hydroxytryptamine and bradykinin, inhibitors of nitric oxide syntheses, etc.
To evaluate if BS presents antiedematogenic activity, the model of carrageenan-induced edema in rats was used. In this model, before the administration of any drug, the right hindpaw volume is determined with a plethysmomether. After the division of the groups, carrageenan (1%, 50 μl) is injected into the plantar surface. At different times after the injection of carrageenan, the paw volume is determined again.

[3] = test system: thermal allodynia induced by carrageenan in Wistar male rats; assay: Thermal allodynia induced by carrageenan; type: in vivo, rat; settings: only at 50 mg/kg i.p., -1 h (10, 25, 50 mg/kg tested)
Experimental: (§1) In the model of thermal allodynia, the right hindpaw withdrawal latency to a thermal stimulus (Hargreaves apparatus—Ugo Basile, Italy) is determined in rats before the administration of any drug. The intensity of the thermal stimulus is adjusted to induce a basal latency about 12 s. After the basal lecture, carrageenan (1%, 50 μL) is injected into the right hindpaw. This inflammatory stimulus reduces the latency for paw withdrawal induced by the thermal stimulus, which is characterized as thermal allodynia.
as §1, with “μl)” for “μL)”

[4] = test system: Wistar Audiogenic Rats (WAR) with audiogenic seizures; assay: Audiogenic seizures (AS) in Wistar Audiogenic Rats, blockade of tonic component; type: in vivo, rat
Description: Comparison of the Anticonvulsant Effect of Free Benzaldehyde Semicarbazone (BS) and the HP-β-CD/BS Pharmaceutical Composition in Wistar Audiogenic Rats (WAR) with Audiogenic Seizures (AS). Typically WARs Present Running Fits, Jumping, Atonic Falling Followed by Tonic-Clonic Seizures and Clonic Spasms when Submitted to High Intensity Sound Stimulus (120 dB SPL)
(§2) Female Wistar Audiogenic Rats (WARs) from our own inbred colony, maintained at the animal facilities of the Physiology Department of Federal University of Minas Gerais, Brazil, weighing 250-300 g, were used. They were kept at 24° C., in groups of 5 per cage receiving chow pellets and water ad libitum. The light/dark cycle was 12 h:12 h, with lights on at 7:00 am and lights off at 7:00 pm. Efforts were made in order to avoid any unnecessary distress to the animals, in accordance to the Guidelines for Animal Experimentation of Federal University of Minas Gerais, Brazil.
Audiogenic seizures (AS) were induced by a sound stimulus (120 dB) delivered into an acoustic chamber through a loud speaker, until tonic seizures appeared, or during a maximum of 1 minute. Behavior was evaluated by a severity index (SI) ranging from SI=0.0 to SI=1.0 (maximum).
Typically WARs present running fits, jumping and atonic falling followed by tonic-clonic seizures and clonic spasms (SI≧0.85). Animals were stimulated three times, once every three days before the beginning of experiments, in order to screen them for seizure severity (control recording). Seven days after the third stimulation they were used in the experiments. To evaluate the effect of decreasing on AS severity, it was taken as criteria the blockade of the tonic component of seizure, which means to obtain SI<0.61.

motor activity of mice = assay: Motor activity in rota-rod apparatus; type: in vivo; settings: 10, 25 or 50 mg/kg i.p.; 30 min after injection; 14 rpm, cut-off 1 min
Experimental: The effect of BS on the motor activity of mice was evaluated in order to investigate if inhibition of the nociceptive behavior in animals treated with BS would not be the result of a central depressor effect. The motor activity was evaluated in a rota-rod apparatus. During the experiment, the mice were placed on the rota-rod (14 rpm) and the time they spent in the apparatus was determined. The cut-off time was 1 min. After the basal lecture, the animals were treated with BS (10, 25 or 50 mg/kg, intraperitoneal; i.p.). The vehicle used was 25% dimethylsulphoxide (DMSO)+10% tween 80 in saline. Thirty minutes after the injection, the time spent in the rota-rod was determined again.

[5] = test system: nociceptive response of mice on hot-plate (57° C.); assay: Hot-plate model; type: in vivo; settings: 10, 25 or 50 mg/kg i.p., -1 h
Experimental: (§3) In the hot-plate model, the mice are placed over a hot-plate (57° C.). The latency to jump or lick the paws is determined. In this model, direct and immediate activation of peripheral afferent fibbers occurs. Thus, drugs that act mainly in the central nervous system inhibit the nociceptive response in this model.
as §3, with “fibers” for “fibbers”

[6] = test system: nociceptive response induced by formaldehyde in mice; assay: Licking behavior induced by formaldehyde; type: in vivo
Experimental: In the first model, licking behaviour induced by formaldehyde (0.92%, 20 μL), the inflammatory stimulus is injected into the dorsum of the right hindpaw of mice. Immediately after the injection, the animals present a nociceptive behaviour characterized by licking and biting the injected paw. The licking time is determined between 0 and 5 min and 15 and 30 min after formaldehyde injection. The first phase results from direct activations of primary afferent fibers and is inhibited mainly by centrally acting drugs such as the opioid analgesics. The second phase is associated with the development of an inflammatory response and facilitation of synaptic transmission in the spinal cord.
In the model of licking behavior induced by formaldehyde, the inflammatory stimulus (0.92%, 20 μL) is injected into the dorsum of the right hindpaw of mice. Immediately after the injection, the animals present a nociceptive behaviour characterized by licking and biting the injected paw. The licking time is determined between 0 and 5 min (first phase) and 15 and 30 min (second phase) after formaldehyde injection. The first phase of the nociceptive response induced by formaldehyde in mice was inhibited by the highest dose of BS (50 mg/kg, i.p.).

[7] = test system: Wistar normal rats with electroshock induced seizures; assay: Maximum electroshock screening (MES), blockade of hindlimb extension; type: in vivo, rat
Experimental: Comparison of the Anticonvulsant Effect of Free Benzaldehyde Semicarbazone (BS) and the BS/HP-β-CD and BS/β-CD Pharmaceutical Compositions in Wistar Normal Rats with Electroshock Induced Seizures (Maximum Electroshock Screening, MES)
as §2, with “Wistar” for “Female Wistar”, “rats” for “Audiogenic Rats (WARs)”, “the main breeding stock of the Institute of Biological Sciences, Federal University of Minas Gerais, Brazil,” for “our own inbred colony,”, “Department,” for “Department of Federal University of Minas Gerais, Brazil,”
Electroshock seizures were induced by electric stimulus, produced by an ELEKTROSCHOCKGERAT apparatus (Karl Kolbe, Scientific Technical Supplies, Frankfurt, Germany) using a current of 70 mA, 60 Hz, during 1 second through a pair of ear clip electrodes.
The behavioral evaluation was carried out by analyzing the tonic component in a four points scale as follows: 0=no seizure; 1=forelimb extension without hind limb extension; 2=complete forelimb extension and partial hind limb extension; 3=complete hind limb extension, which stays parallel to the tail. To evaluate the effect of decreasing on electroshock induced seizures severity, it was taken as criteria the blockade of complete fore- and hind limb extension (score≦1).

Row | Molecule | increase in hemoglobin content of implants ([1]; 0.25 mg/kg, relative to the control group) | increase of hemoglobin content (vascular index), summary statement ([1]; dose not stated) | carrageenan-induced edema (paw volume) [2] | nociceptive response in thermal allodynia (paw withdrawal latency) [3] | animals with tonic component of seizures blocked ([4]; 50 mg/Kg ip) | animals with tonic component of seizures blocked ([4]; 75 mg/Kg ip) | animals with tonic component of seizures blocked ([4]; 100 mg/Kg ip) | minimum dose necessary to produce anticonvulsant activity ([4]; vo and ip) | reduction in the hemoglobin content of implants ([1]; 0.05 mg/kg ip, 9 days after implantation) | reduction in the hemoglobin content of implants ([1]; the other doses (0.25, 0.5 and 2.5 mg/kg ip)) | time spent in the rota-rod (motor activity of mice) | anti-nociceptive effect (latency to jump or lick the paws) [5] | second phase of the nociceptive response (licking time 15-30 min) ([6]; all doses: 10, 25 and 50 mg/kg i.p., -1 h) | first phase of the nociceptive response (licking time 0-5 min) ([6]; highest dose, 50 mg/kg i.p.) | animals with hindlimb extension blocked ([7]; 100 mg/Kg ip and vo, males) | animals in which active, 240 minutes after administration ([7]; 240 minutes after administration (vo)) | minimum dose necessary to produce anticonvulsant activity ([7]; ip) | minimum dose necessary to produce anticonvulsant activity ([7]; vo)
1 | bromobenzaldehyde semicarbazone [BrBs] | about 30% | more than 30% |  |  |  |  |  |  |  |  |  |  |  |  |  |  |  | 
2 | NC(=O)NN=Cc1ccccc1 [BS, benzaldehyde semicarbazone] |  |  | inhibited the carrageenan-induced edema | statistically inhibited | 33% | 50% | 83% | 100 mg/kg | unable to reduce the hemoglobin content | more than 50% | did not reduce the time spent in the rota-rod | did not exhibit anti-nociceptive effect | markedly inhibited | inhibited | about 90% | no activity | 100 mg/kg | 100 mg/kg
